What was measured:
[1] = Cell viability assay (CCK-8) on Vero cells; assay type: cell-based, African green monkey; conditions: African green monkey, CCK-8, read-out: half-maximal cytotoxic concentration (CC50) against host cells
Procedure: (§1) African green monkey kidney (Vero) cells were cultured in Dulbecco’s modified Eagle’s medium (DMEM) supplemented with 100 U/mL penicillin, 100 μg/mL streptomycin, 1% nonessential amino acids (NEAAs), 1% GlutaMAX and 10% fetal bovine serum (FBS) at 37 °C in an atmosphere of 5% CO2. […] DMEM without a drug was used as a control. After 24 h of treatment, Cell Counting Kit-8 (CCK-8, CA1210, Solarbio) was used to determine cell viability at 450 nm via a Multiskan GO instrument.

Vero cells = experiment: Cell viability assay (CCK-8) on Vero cells; assay type: cell-based, African green monkey; conditions: 24 h; for Cytotoxicity: CCK-8, tested up to 30 µM; for inhibition at 30 µM: Chlorocebus sabaeus, CCK-8, read-out: Inhibition rate of Vero cell at 30 μM
Procedure: as §1

[2] = test system: T. gondii RH strain tachyzoites; experiment: In vitro anti-proliferation assay (qPCR of 529-bp repeat); assay type: cell-based, Toxoplasma gondii; conditions: for IC50: Toxoplasma gondii, RH strain in Vero cells, 24 h treatment, qPCR, read-out: IC50, inhibition of T. gondii proliferation
Procedure: The antiproliferative effects of NBZ023 and NBZ035 on T. gondii were determined via qPCR, which was performed by using a QuantStudio 3 Flex real-time PCR system (Life Technologies). Cells were infected with tachyzoites (2 × 10^5 per well) for 6 h, then treated with NBZ023, NBZ035 (0.24‒30 μM) or pyrimethamine (0.4 μM) for 24 h, and washed twice with PBS. Infected or uninfected cells that were cultured with DMEM (1% FBS) were used as the parasite or the host cell control group, respectively. Total genomic DNA from the cell samples was isolated with the DNAiso reagent (Takara), and the levels of the 529-bp repeat sequence of T. gondii were measured via qPCR as before.

[3] = test system: T. gondii RH strain tachyzoites; experiment: In vitro anti-invasion assay (qPCR; RH-GFP fluorescence microscopy); assay type: cell-based, Toxoplasma gondii; conditions: for IC50: Toxoplasma gondii, Vero cells, 2 h after infection, read-out: IC50, inhibition of T. gondii invasion; for number of parasitophorous vacuoles (PVs) invaded by RH-GFP tachyzoites: fluorescence microscopy, compared with control and positive control groups
Procedure: Vero cells were seeded onto 6-well plates and cultured with DMEM supplemented with 10% FBS to obtain cell monolayers. The medium was replaced with fresh DMEM (1% FBS) containing NBZ023 or NBZ035 (0.24–30 μM), pyrimethamine (0.4 μM) or no drugs (as a control), and tachyzoites (2 × 10^6 per well) were then inoculated into the confluent Vero cell monolayers. At 2 h after infection, the cell monolayers were washed twice with PBS to remove extracellular tachyzoites and then total genomic DNA from the cell samples was isolated with the DNAiso reagent (Takara). The anti-invasion capabilities of NBZ023 and NBZ035 were determined by qPCR. The T. gondii RH strain with green fluorescence was seeded as described above. After infection, the cells were incubated for 36 h to fully observe the infection status of the parasites via fluorescence microscopy.

T. gondii PRU strain = experiment: In vitro activity against PRU strain tachyzoites (PV counts, plaques); assay type: cell-based, Toxoplasma gondii; conditions: NBZ023 2.85 or 30 μM, NBZ035 1.6 or 30 μM; 24, 48, 72 h
Procedure: Vero cells were infected for 8 h with extracellular type II PRU strain tachyzoites (1.5 × 10^5), which were isolated from a mouse brain, and then the medium containing compounds or 0.1% DMSO (as a control) was added. After 24, 48, and 72 h of incubation, the numbers of PVs were assessed via […] under a 40 × objective lens, and at least 20 random fields per well were counted.

[4] = test system: PRU strain bradyzoite cysts; experiment: In vitro PRU bradyzoite cyst formation (DBA staining); assay type: cell-based, Toxoplasma gondii; conditions: PRU cysts in Vero cells, 48 h; NBZ023 2.85 or 30 μM, NBZ035 1.6 or 30 μM
Procedure: The conditions for inducing the formation of cysts in vitro by the type II PRU strain were described in a previously published study. After the induction of cyst formation, the alkaline medium was removed and replaced with a medium containing NBZ023, NBZ035, or 0.1% DMSO as the control. After 48 h, the DMEM was removed, and the PRU strain bradyzoite cysts were stained with Dolichos biflorus agglutinin (DBA) to assess the treatment effects.The stained cysts were observed using light microscopy under a 40 × objective lens, with at least 3 random fields per well counted.

[5] = test system: T. gondii Type I tachyzoites; experiment: In vivo efficacy against acute T. gondii infection in mice (tissue parasite burden by qPCR); design: species or system BALB/c mice; conditions: acute RH infection, once daily for 7 days, compared with parasite control, NBZ compounds 10 mg/kg BW intraperitoneally, positive control orally
Procedure: Female BALB/c mice (18-20 g, 6-8 weeks old) were divided into 4 groups consisting of 6 mice each, and each mouse was injected intraperitoneally with 2 × 10^3 Type I tachyzoites. Four hours after inoculation, the treatments were administered once per day for 7 consecutive days. NBZ023 and NBZ035 were dissolved in isotonic saline containing 5% ethanol and 5% Cremophor EL to a concentration of 1 mg/mL for in vivo experiments. Sulfadiazine (10 mg/mL, Sigma, USA), pyrimethamine (5 mg/mL, Sigma, USA), and folinic acid (1.5 mg/mL, Sigma, USA) were suspended in isotonic saline containing 1% CMC-Na and used as positive drugs in in vivo experiments. […] After the mice were euthanized on the eighth day, the brains, livers, and spleens were collected. DNA was isolated with a DNA purification kit ([…], Omega Bio-Tek, USA). The in vivo efficacy of the compounds against T. gondii was evaluated via quantitative real-time PCR with DNA from the brain, liver, and spleen. The numbers of parasites in the tissue samples were determined using standard curves constructed using known numbers of tachyzoites, as previously described.

T. gondii tachyzoites = experiment: Ultrastructural analysis by transmission electron microscopy; assay type: cell-based, Toxoplasma gondii; conditions: NBZ023 2.85 μM, NBZ035 1.6 μM
Procedure: The effects of the incubation with the drugs on the ultrastructure of T. gondii tachyzoites were observed via transmission electron microscopy (TEM). For TEM analysis, Vero cells were grown to confluence in T25 flasks and infected with 2 × 10^6 T. gondii tachyzoites for 8 h. After NBZ023 (2.85 μM) or NBZ035 (1.6 μM) was added, the cells were cultured for 8 or 24 h, then digested with TrypLE Express for 2 min, and washed twice with PBS. The detailed experimental procedures were described in a previous study.

T. gondii RH tachyzoites = experiment: Screening for anti-T. gondii activity in vitro (plaque and qPCR assays); assay type: cell-based, Toxoplasma gondii; conditions: 30 μM screening
Procedure: The anti-T. gondii activity of compounds NBZ001‒037 was examined via RT-PCR. Confluent Vero cells in 6-well plates were infected with 2 × 10^5 T. gondii RH tachyzoites per well, incubated for 6 h, and then washed twice with PBS to remove extracellular tachyzoites. The cell monolayers were incubated with DMEM (1% FBS) containing various concentrations of NBZ001‒037 for 24 h. Total genomic DNA from each sample was isolated with the DNAiso reagent (Takara), and the levels of the 529-bp repeat element of T. gondii were measured by qPCR. A plaque assay was used to evaluate the activity of the compounds. The detailed experimental procedures were described in previous studies.

SMILES	CC50 at 24 h [1] [µM]	Cytotoxicity (Vero cells) [µM]	inhibition at 30 µM (Vero cells) [%]	IC50 [2] [µM]	IC50 ([3]; RH strain, qPCR) [µM]	number of parasitophorous vacuoles (PVs) invaded by RH-GFP tachyzoites [3]	proliferation ability of the T. gondii PRU strain (parasites per PV, number of PVs) (T. gondii PRU strain)	inhibition of the formation of T. gondii cysts compared with control [4]	reduction of mean T. gondii burden in the liver [5] [%]	reduction of mean numbers of T. gondii parasites in the brain [5] [%]	reduction of mean numbers of T. gondii parasites in the spleen [5] [%]	ultrastructural change of T. gondii tachyzoites (TEM) (T. gondii tachyzoites; 24 h of treatment)	ultrastructural change of T. gondii tachyzoites (TEM) (T. gondii tachyzoites; incubation 8 h)	increase in potency compared with nonaromatic heterocycles (NBZ016–018) (T. gondii RH tachyzoites)	selectivity index (SI) ([2]; CC50 host cells / IC50 proliferation)	anti-invasion rate ([3]; 0.4 μM, RH strain, qPCR) [%]
O=C(Nc1ccccc1)c1ccc2[nH]c3c4[n+](ccc3c2c1)-c1ccccc1C4=O [NBZ035]	80.6	> 30.00	3.27	1.6	1.13	significantly reduced	significantly (P ≤ 0.05) inhibited	twofold	88.52	93.21	89.40	the parasite ruptured, and severe cavitation occurred	cracks in the somatic cytoplasm of the parasite	–	–	–
O=C(Nc1ccccc1)c1ccc2[nH]c3c(C(=O)c4cccc(Br)c4)nccc3c2c1 [NBZ023]	883	> 30.00	4.56	2.85	4.72	significantly reduced	significantly (P ≤ 0.05) inhibited	twofold	56.42	70.72	68.90	the parasite ruptured, and severe cavitation occurred	cracks in the somatic cytoplasm of the parasite	2- to 3 fold	309.8	–
CCc1nc(N)nc(N)c1-c1ccc(Cl)cc1 [pyrimethamine, reference compound]	–	–	–	–	–	–	–	–	–	–	–	–	–	–	–	26.77
